Reference: patent publication US20250388857A1, “USE OF TRIBUTYRIN AS AN ADDITIVE FOR EMBRYONIC DEVELOPMENT CULTURE MEDIUM IN VITRO” (Institute of Animal Sciences and Veterinary Medicine, Hubei …, priority 2024, published 2025)

Experiments:
[1] = system: 5 hmC level in mouse embryonic genome; experiment: detection of DNA methylation level (5 hmC immunofluorescence); type: cell-based; conditions: 100 μmol/L tributyrin, 2-cell stage, vs control
Description: (§1) Therefore, exemplically, experiments are carried out in the experimental group of this example using culture medium added 100 μmol/L of tributyrin, specifically, the experiments are divided into the following two groups:
(§2) Experimental group: the development culture medium in vitro of mouse embryos containing 100 μmol/L of tributyrin was added to the special dish for embryo culture, 2 droplets were made, 50 μL of culture medium per droplets, covered with paraffin oil, pre-balanced in an incubator with 37° C., 5% CO2 saturated humidity for more than 6 hours, and the embryos were placed in well-balanced culture droplets, with 25˜35 pieces per droplets.
Referring to the steps of development culture in vitro of example 2, development culture in vitro was carried out on the above two treatment groups; embryos from the control group and the experimental group at the 2-cell stage were obtained, in order to detect the DNA methylation level in mouse embryos, the cells were first fixed with paraformaldehyde, TritonX-100 enhanced the permeability of the cell membrane to facilitate the binding of antibody antigens. After acidification and base neutralization, the non-specific protein is blocked with 2% BSA, followed by incubation with the corresponding primary antibody and fluorescently labeled secondary antibody. The specific methods and steps are as follows: […]

mouse embryos [2] = experiment: detection of reactive oxygen species (ROS) in mouse embryos, DCFH-DA fluorescence; type: cell-based; conditions: 100 μmol/L tributyrin, 2-cell stage, vs control
Description: as §1, §2
Referring to the steps of development culture in vitro of example 2, development culture in vitro was carried out on the above two treatment groups; according to the instructions of the reactive oxygen species detection kit (Biyuntian, S0033S), DCFH-DA was diluted to a working solution concentration of 5 µM with KSOM culture medium. […] Image J software was used to analyze the average fluorescence intensity of ROS in embryos.

SOD2 = experiment: detection of antioxidant gene expression in mouse embryos (qPCR), SOD2; type: cell-based; conditions: 100 μmol/L tributyrin, 2-cell stage, vs control, RPLP0 internal control
Description: as §1, §2
(§3) Referring to the steps of development culture in vitro of example 2, development culture in vitro was carried out on the above two treatment groups; embryos from the control group and the experimental group at the 2-cell stage were obtained, the high-purity RNA was extracted according to the instructions of the RNAprep Pure Total RNA Extraction Kit for Micro Samples (Tiangen, DP420). […] (annealed) for 30 s; 40 cycles (PCR amplification); the fluorescent signal was collected at 55° C. extension, the RPLPO gene was used as an internal control, and the expression was calculated using the 2^−ΔΔct formula, wherein, the primer sequences of each gene are shown in Table 2 below: […]

mouse embryos [3] = experiment: development in vitro of mouse embryos (rate of 2-cell, 4-cell, blastocyst); type: cell-based; conditions: for The rate of 2-cell: 24 h culture; for The rate of 4-cell: 48 h culture
Description: Specifically, at 4:00 p.m. on the first day, 10 IU pregnant horse serum gonadotropin was injected intraperitoneally into Kunming female mouse with SPF level for 6˜9 weeks, and 8 IU chorionic gonadotropin was injected after 48 hours. At 9:00 the next day, the 9˜12-week male mouse was killed by cervical dislocation, and the tail of the epididymis next to the vas deferens was taken, after cutting with ophthalmic scissors in 200 μL of insemination droplet (Sigma, MR-070-D) is to release sperm for 60 minutes. The insemination droplet need to be pre-balanced the night before. At the same time, 4 female mouse were killed by neck detachment, the enlargement of oviduct was disposed of in the sperm solution, the insulin needle was used to open the ampulla side under the microscope, and the cumulus-oocyte complex (COCs) would be released from the ampulla under the action of squeezing or internal pressure. 8˜10 μL of sperm and COCs were taken in the insemination droplet. After 6 h after insemination, the zygotes (with two pronuclei, both male and female) were cleaned and transferred to different treatments of KSOM culture medium, specific groups are as follows:
Control group: the basic development culture medium in vitro of mouse embryos was added to the special small dish for embryo culture, 2 droplets were made, 50 μL of culture medium per droplets, covered with paraffin oil, pre-balanced in an incubator with 37° C., 5% CO2 saturated humidity for more than 6 hours, and the embryos were placed in well-balanced culture droplets, with 25˜35 pieces per droplets;
as §2, with “Treatment group 1:” for “Experimental group:”, “50” for “100”, “droplets;” for “droplets.”
as §2, with “Treatment group 2:” for “Experimental group:”, “droplets;” for “droplets.”
as §2, with “Treatment group 3:” for “Experimental group:”, “200” for “100”, “droplets;” for “droplets.”
The above different treatment groups were incubated in an incubator with 37° C., 5% CO2 saturated humidity for 24 h, 48 h, 72 h and 96 h, corresponding to the 2-cell, 4-cell, morula and blastocyst stages of embryonic development, respectively, and the embryonic development was observed.
The rate of cleavage (%)=number of cleavage embryos/number of fertilized eggs with male and female pronuclei×100%
The rate of blastocyst (%)=number of blastocysts/number of cleavage embryos×100%

histone H3K27ac = experiment: detection of histone acetylation level (H3K27ac immunofluorescence); type: cell-based, mouse; conditions: 100 μmol/L tributyrin, 2-cell stage, vs control
Description: as §1, §2
Referring to the steps of development culture in vitro of example 2, development culture in vitro was carried out on the above two treatment groups; embryos from the control group and the experimental group at the 2-cell stage were obtained, the histone H3K27ac level was detected by immunofluorescence. The specific methods and steps are as follows:
(1) Mouse embryos fixation and permeabilization: mouse embryos were placed in a washing solution (PBS containing 0.1% Tween-20 and 0.01% Triton X-100) for rapid washing for 1 time, then piped into the fixed permeabilization solution (PBS containing 4% paraformaldehyde and 0.5% Triton) and treated at room temperature for 50 min. […]

mouse embryos [4] = experiment: detection of ATP level in mouse embryos; type: cell-based; conditions: 100 μmol/L tributyrin, 2-cell stage, vs control
Description: as §1, §2
Referring to the steps of development culture in vitro of example 2, development culture in vitro was carried out on the above two treatment groups; according to the instructions of the ATP detection kit (Biyuntian, S0027), the embryos of the control group and the experimental group at the 2-cell stage were tested for ATP. Add 16 μL of ATP detection lysate to 200 μL centrifuge tube and transfer into 40 pieces 2-cell stage embryos. […] 64 μL of ATP working solution (ATP detection reagent diluent: ATP detection reagent=4:1) was added to the tube, vortex and centrifuged to the bottom of the tube, quickly transferred to a black 96-well plate with a multifunctional microplate reader for detection.

GPX4 = experiment: detection of antioxidant gene expression in mouse embryos (qPCR), GPX4; type: cell-based; conditions: 100 μmol/L tributyrin, 2-cell stage, vs control, RPLP0 internal control
Description: as §1, §2, §3

mouse embryos [5] = experiment: detection of mitochondrial membrane potential, JC-1 staining; type: cell-based; conditions: 100 μmol/L tributyrin, 2-cell stage, vs control
Description: as §1, §2
Referring to the steps of development culture in vitro of example 2, development culture in vitro was carried out on the above two treatment groups; according to the instructions of the mitochondrial membrane potential J C-1 detection kit (Biyuntian, C2006), the embryos of the control group and the experimental group at the 2-cell stage were transferred into 1×J C-1 staining working solution, incubated in the dark at 37° C., 5% CO2 incubator for 30 min, then wash the embryos with 1×J C-1 staining buffer, it was placed under an inverted fluorescence microscope for observation and photography. Image J software was used to analyze the average fluorescence intensity of J C-1 red and J C-1 green in embryos.

With `CCCC(=O)OCC(COC(=O)CCC)OC(=O)CCC` [tributyrin] the “5 hmC level in mouse embryos” value [1] was “significantly increased”, the “ROS level (average fluorescence intensity of ROS) in mouse embryos” value (mouse embryos [2]) was “significantly reduced” and the “expression of antioxidant gene SOD2” value (SOD2) was “significantly increased”. For the same molecule, the “The rate of 2-cell” value (mouse embryos [3]; 50 μmol/L tributyrin in KSOM) was 96.58 ± 0.83%, the “The rate of 4-cell” value (mouse embryos [3]; 50 μmol/L tributyrin in KSOM) was 95.57 ± 0.57% and the “The rate of 2-cell” value (mouse embryos [3]; 100 μmol/L tributyrin in KSOM) was 96.91 ± 0.76%. The “The rate of 4-cell” value (mouse embryos [3]; 100 μmol/L tributyrin in KSOM) was 96.57 ± 0.37%, the “The rate of 2-cell” value (mouse embryos [3]; 200 μmol/L tributyrin in KSOM) was 96.63 ± 0.5% and the “The rate of 4-cell” value (mouse embryos [3]; 200 μmol/L tributyrin in KSOM) was 96.46 ± 0.5%. For the same molecule, the “number of cells (microscopic observation, FIG. 1A)” value (mouse embryos [3]; treatment group compared to control group) was “increased significantly”, the “histone H3K27ac level in mouse embryos” value (histone H3K27ac) was “significantly increased” and the “ATP level in mouse embryos” value (mouse embryos [4]) was “significantly increased”. The “expression of antioxidant gene GPX4” value (GPX4) was “significantly increased” and the “mitochondrial membrane potential level (relative fluorescence intensity of JC-1 red/green)” value (mouse embryos [5]) was “significantly improved”.
